For this test, the target named is avidin-bound TOPI-5 (Gallus gallus, UniProt P02701). Briefly: Displacement assay, TOPI-5–avidin complex. Format: binding. The note with it: complex 90 nM, compound 50 µM.
avidin-bound TOPI-5, sequence (P02701 25-152): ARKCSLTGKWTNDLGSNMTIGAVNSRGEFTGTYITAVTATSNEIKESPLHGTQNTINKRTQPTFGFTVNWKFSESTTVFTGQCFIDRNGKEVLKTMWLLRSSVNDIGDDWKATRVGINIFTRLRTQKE

On to `O=C(O)CCCC[C@@H]1SC[C@@H]2NC(=O)N[C@@H]21` [biotin], for which the “displacement of avidin-bound TOPI-5” value is “displacement”.
